One compound from patent US11760754B2, “Heterocyclic mitochondrial activity inhibitors and uses thereof” (UNIVERSITÉ DE MONTRÉAL, priority 2017, dated 2023) can be followed below.

pEC50: −log10 of the molar value. Like-named read-outs stand apart in the source and are kept apart here.

For experiment [1], the system named is OCI-AML3 cells. The procedure:
LC/MS metabolite measurements were carried out at the McGill Metabolomics platform. Authentic metabolite standards were purchased from Sigma-Aldrich Co., while the following LC/MS grade solvents and additives were purchased from Fisher: ammonium acetate, formic acid, water, methanol, and acetonitrile. OCI-AML3 cells (5 million cells, quadruplicates, treated with either DMSO or Mubritinib 500 nM for 20 h) were washed twice with ice-cold 150 mM ammonium formate pH 7.2. Metabolites were then extracted using 380 μl of LC/MS grade 50% methanol/50% water mixture and 220 μl of cold acetonitrile. Samples were then homogenized by 1.4 mm ceramic bead beating 2 min at 30 Hz (TissueLyser, Qiagen). A volume of 300 μl of ice-cold water and 600 μl of ice-cold methylene chloride were added to the lysates. Samples were vortexed and allowed to rest on ice for 10 min for phase separation followed by centrifugation at 4,000 rpm for 5 min. The upper aqueous layer was transferred to a fresh pre-chilled tube. Samples were eventually dried by vacuum centrifugation operating at −4° C. (Labconco) and stored at −80° C. until ready for LC-MS/MS data collection. For LC-MS/MS analysis, specimens were first re-suspended in 50 μl of water and clarified by centrifugation for 15 min at 15,000 rpm at 1° C. Samples were maintained at 4° C. for the duration of the LC-MS/MS analysis in the autosampler. Specimens were separated by U-HPLC (Ultra-High-Performance Liquid Chromatography) (1290 Infinity, Agilent Technologies) using a Scherzo SM-C18 (3 mm×150 mm) 3 μm column and guard column (Imtakt USA) operating at 10° C.

The subject of experiment [2] is ETC complex I. Conditions: cell free assay. An excerpt:
The cell-free kit assay for ETC complex I activity was purchased from MitoSciences (Abcam, Cambridge, UK), and used in accordance with the manufacturer's protocol.

Experiment [3] has as its system OCI-AML3 cells. The experiment in a line: OCI-AML3 cell growth inhibition, dose-response viability assay (CellTiterGlo). In kind it is cell-based. Conditions: OCI-AML3 cells. In short, it runs like this: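 OCI-AML3 cells seeded, then exposed to compound in serial dilutions from 10 μM to 0.5 nM, in duplicate or quadruplicate. Viability read by CellTiter-Glo.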
For orientation: Cellular ATP, detected with luciferase, serves as a proxy for viable cell number.

Experiment [4] deals with Normal primitive CD34-positive cord blood cells. The experiment can be described thus: cells. The following applies: Homo sapiens, CD34-positive cell, read-out: EC50 in normal primitive CD34-positive cord blood cells.
Experiment [5] relates to pyruvate dehydrogenase (PDH). The following applies: OCI-AML3 cells.
For experiment [6], the system named is AML patient cells. The experiment can be described thus: Primary AML patient cell dose-response viability assay (chemical screen). Conditions: for pEC50: Homo sapiens.
The test system of experiment [7] is OCI-AML5 cells. The following applies: 6-day culture, 384-well plates.
Experiment [8] has as its system OCI-AML3 cells. An excerpt:
(§1) The following FACS antibodies were used: anti-human CD45 Pacific Blue (BioLegend 304029), CD45 fluorescein isothiocyanate (FITC; BioLegend 304006), CD33 phycoerythrin (PE; BD Bioscience 555450), CD33 BV421 (BD 562854), CD34 […] (APC; BD Bioscience 555824), CD34 APC (Stem Cell Technologies 10613), CD3 FITC (BD Bioscience 555332), CD4 APC-Cy7 (BD 560158), CD8 APC (BD 555369), CD3 PE-Cy5 (BD 555334), CD19 PE-Cy7(BD Bioscience 557835), anti-mouse CD45.1 APC-efluor730 (eBioscience 47-0453-82), ERBB2-PE (Biolegend®, 324406), Annexin V FITC (BD Bioscience®, 556419). Dead cells were stained using Propidium iodide at a final concentration of 1 μg/mL. For ROS quantification cells were stained with 1 μM H2DCFDA (Thermo Fisher, […]) under normal growth conditions. Cells were analyzed on LSRII® flow cytometer (BD Bioscience®), BD Canto® II cytometer (BD Bioscience) or on an IQue Screener (Intellicyt®) and results were analyzed with BD fluorescence-activated cell sorter (FACS) Diva®4.1 and FlowJo®X software.
The source holds these as a separate data set.

Experiment [9] relates to OCI-AML3 leukemic cells. The following applies: 500 nM, 24 h.
Excerpt: as §1

The subject of experiment [10] is OCI-AML3 leukemic cells. The procedure: Oxygen consumption rates and extracellular acidification rates were measured using a 96-well Seahorse Bioanalyzer XFe96® or XFe24® according to the manufacturer's instructions (Agilent Technologies). Seahorse XF Base medium was supplemented with 1 mM pyruvate, 2 mM glutamine and 10 mM glucose in the case of Mitochondrial Stress Test and with 1 mM pyruvate, 2 mM glutamine and no glucose in the case of Glycolytic Stress Test. The pH of the Seahorse media was then adjusted at 7.4 prior to assay. In brief, leukemic cells were seeded into Seahorse 96-well (or 24-well) plates pre-coated for 3 h with poly-lysine (Sigma-Aldrich, P4707) at a density of 75,000 cells/well in 100 μL (or 150,000 cells/well, in 150 μL) of temperature/CO2 pre-adjusted Seahorse media per well. The Seahorse plates were then centrifuged at 1400 rpm for 5 min. An additional 75 μL (or 375 μL) of Seahorse media was then added and cells were eventually analyzed following the manufacturer's instructions by adding compounds in a constant volume of 25 μL (or 75 μL). Compounds were acutely injected in cells at a final concentration of 1 μM for Mubritinib, 1 μM for Oligomycin, 0.5 μM for FCCP, 0.5 μM for Rotenone/Antimycin A, Glucose 10 mM and 2-Deoxy-Glucose 50 mM.

The subject of experiment [11] is Complex I. Conditions: OCI-AML3 cells, ubiquinone-dependent vs -independent activity.
The mark [12] stands for this setting: 500 nM, 24 h, relative to DMSO control.

Turning to `FC(F)(F)c1ccc(/C=C/c2nc(COc3ccc(CCCCn4ccnn4)cc3)co2)cc1` [Mubritinib], the “levels of oxidized glutathione” value in experiment [1] (setting [12]) is given as “increased”. Besides, the “levels of reduced glutathione” value in experiment [1] (setting [12]) is recorded as “decreased”. Moreover, the “levels of citric acid cycle intermediates (citrate, alpha-ketoglutarate, succinate, fumarate, malate)” value in experiment [1] (OCI-AML3 cells) was “reduces”. In experiment [2], the “effect on ETC Complex I activity” value is “inhibitory effect”. Also, the “OCI-AML3 cells sensitive to the compound (dose response)” value in [3] was “sensitive”. For the same compound, the pEC50 is less than 6.43 in experiment [4]; approximately 6.43 in [6] (read-out: Median EC50 in the AML population tested); 7.02 in experiment [6] (read-out: median EC50, AML specimens with simultaneous mutations in NPM1, DNMT3A and FLT3-ITD); 6.37 in experiment [6] (read-out: median EC50, other AMLs subtypes). In addition, the “effect on pyruvate dehydrogenase (PDH)” value in experiment [5] is “inhibit pyruvate dehydrogenase (PDH) in an indirect fashion”. For the same compound, the “sensitivity of HOX-high versus HOX-med/low AML cells” value in [6] (dose response validation screening, large cohort) was “significantly more sensitive”. Also, in experiment [6] (primary screen of 60 compounds), the “sensitivity of HOX-high versus HOX-med/low patient cells” value was “significantly more sensitive”. Moreover, in [7], the “OCI-AML5 response to compound-induced cell death” value is given as “resistant”. Further, in experiment [8] (100 nM 24 h, 6 mM NAC pre-incubation 4 hours), the “compound-induced apoptosis in the presence of ROS scavenger N-acetyl-cysteine (NAC)” value is reported as “significantly decreased”. Moreover, in experiment [8] (24 hours, 100 nM or 10 μM), the “Annexin V staining (marker of apoptosis)” value is “increase”. For the same compound, the “number of dead (PI-positive) cells” value in experiment [8] (27 hours of treatment) is “increase”. Further, the “live cell counts (PI-negative cells)” value in experiment [8] (four days of treatment, dose-dependent) is “reduction”. In addition, the “level of ROS activity (hydroxyl, peroxyl), DCFDA” value in [9] was “increased”. For the same compound, the glycolytic switch result in [10] (OCI-AML3 cells) is reported as “induce a glycolytic switch”. Also, the oxygen consumption rate result in experiment [10] (acute injection, 1 μM) is on record as “impaired”. Further, the “nature of inhibitory effect on complex I” value in experiment [11] is given as “NADH-independent (i.e. ubiquinone-dependent)”.

A word on the pEC50: it is the EC50 on a negative log10 scale, so that one unit is a factor of ten.
